Legend:
sedge, umbrella = assay: Test B flooded paddy test; format: in vivo, Cyperus difformis; settings: Flood, 250 g ai/ha; 0 to 100 scale where 0 is no effect and 100 is complete control
In short: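 Plants were grown to the 2-leaf stage, then pots were flooded to 3 cm above the soil and compounds were applied directly into the paddy water. That depth was held throughout, and after 13 to 15 days in the greenhouse injury was rated visually against controls on a 0–100 scale (0 no effect, 100 complete control).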

oilseed rape = assay: Test C postemergence; format: in vivo, Brassica napus
Excerpt: (§1) Seeds of plant species selected from blackgrass (Alopecurus myosuroides), Italian ryegrass (Lolium multiflorum), wheat, winter (winter wheat, Triticum aestivum), galium (catchweed bedstraw, Galium aparine), corn (Zea mays), large (Lg) crabgrass (Digitaria sanguinalis), giant foxtail (Setaria faberii), johnsongrass (Sorghum halepense), lambsquarters (Chenopodium album), morningglory (Ipomoea coccinea), yellow nutsedge (Cyperus esculentus), pigweed (Amaranthus retroflexus), ragweed (common ragweed, Ambrosia elatior), soybean (Glycine max), barnyardgrass (Echinochloa crus-galli), oilseed rape (Brassica napus), waterhemp (common waterhemp, Amaranthus rudis), kochia (Kochia scoparia), wild oat (Avena fatua), surinam grass (Brachiaria decumbens), foxtail, green (green foxtail, Setaria viridis), goosegrass (Eleusine indica), bromegrass, downy (downy bromegrass, Bromus tectorum), nightshade (eastern black nightshade, Solanum ptycanthum), cocklebur (common cocklebur, Xanthium strumarium), cupgrass, woolly (woolly cupgrass, Eriochloa villosa), bermudagrass (Cynodon dactylon), sunflower, (common oilseed sunflower, Helianthus annuus), Russian thistle (Salsola kali), and velvetleaf (Abutilon theophrasti) were planted into a blend of loam soil and sand and treated preemergence with test chemicals formulated in a non-phytotoxic solvent mixture which included a surfactant.
(§2) At the same time, plants selected from these crop and weed species and also barley, winter (winter barley, Hordeum vulgare), windgrass (Apera spica-venti), chickweed (common chickweed, Stellaria media), deadnettle (henbit deadnettle, Lamium amplexicaule), and canarygrass (littleseed canarygrass, Phalaris minor) were planted in pots containing Redi-Earth® planting medium (Scotts Company, 14111 Scottslawn Road, Marysville, Ohio 43041) comprising spaghnum peat moss, vermiculite, wetting agent and starter nutrients and treated with postemergence applications of test chemicals formulated in the same manner. Plants ranged in height from 2 to 18 cm (1- to 4-leaf stage) for postemergence treatments. Treated plants and controls were maintained in a greenhouse for 13 to 15 days, after which time all species were compared to controls and visually evaluated. Plant response ratings, summarized in Table C, are based on a scale of 0 to 100 where 0 is no effect and 100 is complete control. A dash (-) response means no test result.

blackgrass = assay: Test C postemergence; format: in vivo, Alopecurus myosuroides
In short: (§3)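 Preemergence: seeds sown in a loam soil–sand blend and sprayed with test chemical in a non-phytotoxic solvent mixture containing surfactant. Postemergence: plants at 2 to 18 cm (1- to 4-leaf stage) in peat-based medium, treated with the same formulation. Greenhouse 13 to 15 days, then visual rating 0 (no effect) to 100 (complete control).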

barnyardgrass [1] = assay: Test A preemergence; format: in vivo, Echinochloa crus-galli; settings: 0 to 100 scale where 0 is no effect and 100 is complete control
In short: (§4)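 Visual 0–100 rating (100 = complete control) taken about 10 d post-treatment relative to untreated checks. Preemergence: directed soil spray on sown loam/sand pots. Postemergence: seedlings 2–10 cm, 1–2 leaf. Non-phytotoxic solvent formulation with surfactant.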

morningglory = assay: Test C postemergence; format: in vivo, Ipomoea coccinea
In short: as §3

large (Lg) crabgrass = assay: Test C postemergence; format: in vivo, Digitaria sanguinalis
In short: as §3

yellow nutsedge = assay: Test C postemergence; format: in vivo, Cyperus esculentus
In short: as §3

johnsongrass = assay: Test C postemergence; format: in vivo, Sorghum halepense
In short: as §3

wheat = assay: Test A postemergence; format: in vivo, Triticum aestivum
In short: as §4

kochia = assay: Test C postemergence; format: in vivo, Kochia scoparia
In short: as §3

barnyardgrass [2] = assay: Test C postemergence; format: in vivo, Echinochloa crus-galli
Excerpt: as §1, §2

[3] = 16 g ai/ha, postemergence, 0 is no effect, 100 is complete control
[4] = 125 g ai/ha, postemergence, visual rating, scale 0 to 100 (0 no effect, 100 complete control)
[5] = Postemergence, 62 g ai/ha, scale 0 to 100 (0 no effect, 100 complete control)
[6] = Postemergence, 31 g ai/ha, scale 0 to 100 (0 no effect, 100 complete control), 13 to 15 days

N#Cc1cccc(Oc2ncc(Cl)cn2)c1-n1cc(SC(F)(F)F)cn1 [Compound 134, 3-[(5-chloro-2-pyrimidinyl)oxy]-2-[4-(trifluoromethylthio)-1-pyrazolyl]benzonitrile]
Plant response rating, Sedge, Umbrella (sedge, umbrella): 30
plant injury at 16 g/ha (oilseed rape; Brassica napus, post-emergence, 16 g ai/ha, postemergence, 0 is no effect, 100 is complete control, read-out: Plant response rating (0 to 100), Oilseed Rape): 5%
plant injury at 125 g/ha (oilseed rape; Brassica napus, post-emergence, 125 g ai/ha, postemergence, visual rating, scale 0 to 100 (0 no effect, 100 complete control), read-out: Plant response rating, Oilseed Rape): 60%
plant injury at 62 g/ha (oilseed rape; Brassica napus, post-emergence, Postemergence, 62 g ai/ha, scale 0 to 100 (0 no effect, 100 complete control), read-out: Plant response rating, Oilseed Rape): 70%
pest or weed control at 16 g/ha (blackgrass; Alopecurus myosuroides, post-emergence, 16 g ai/ha, postemergence, 0 is no effect, 100 is complete control, read-out: Plant response rating (0 to 100), Blackgrass): 5%
pest or weed control at 125 g/ha (blackgrass; Alopecurus myosuroides, post-emergence, 125 g ai/ha, postemergence, visual rating, scale 0 to 100 (0 no effect, 100 complete control), read-out: Plant response rating, Blackgrass): 10%
pest or weed control at 31 g/ha (blackgrass; Alopecurus myosuroides, post-emergence, Postemergence, 31 g ai/ha, scale 0 to 100 (0 no effect, 100 complete control), 13 to 15 days, read-out: Plant response rating, Blackgrass): 25%
pest or weed control at 62 g/ha (blackgrass; Alopecurus myosuroides, post-emergence, Postemergence, 62 g ai/ha, scale 0 to 100 (0 no effect, 100 complete control), read-out: Plant response rating, Blackgrass): 5%
Plant response rating, Barnyardgrass (barnyardgrass [1]; 125 g ai/ha): 70
Barnyardgrass plant response rating (barnyardgrass [1]; 500 g ai/ha): 100
pest or weed control at 16 g/ha (morningglory; Ipomoea, post-emergence, 16 g ai/ha, postemergence, 0 is no effect, 100 is complete control, read-out: Plant response rating (0 to 100), Morningglory): 70%
pest or weed control at 125 g/ha (morningglory; Ipomoea, post-emergence, 125 g ai/ha, postemergence, visual rating, scale 0 to 100 (0 no effect, 100 complete control), read-out: Plant response rating, Morningglory): 95%
pest or weed control at 62 g/ha (morningglory; Ipomoea, post-emergence, Postemergence, 62 g ai/ha, scale 0 to 100 (0 no effect, 100 complete control), read-out: Plant response rating, Morningglory): 85%
pest or weed control at 16 g/ha (large (Lg) crabgrass; Digitaria sanguinalis, post-emergence, 16 g ai/ha, postemergence, 0 is no effect, 100 is complete control, read-out: Plant response rating (0 to 100), Crabgrass, Large): 5%
pest or weed control at 125 g/ha (large (Lg) crabgrass; Digitaria sanguinalis, post-emergence, 125 g ai/ha, postemergence, visual rating, scale 0 to 100 (0 no effect, 100 complete control), read-out: Plant response rating, Crabgrass, Large): 15%
pest or weed control at 62 g/ha (large (Lg) crabgrass; Digitaria sanguinalis, post-emergence, Postemergence, 62 g ai/ha, scale 0 to 100 (0 no effect, 100 complete control), read-out: Plant response rating, Crabgrass, Large): 10%
pest or weed control at 16 g/ha (yellow nutsedge; Cyperus, post-emergence, 16 g ai/ha, postemergence, 0 is no effect, 100 is complete control, read-out: Plant response rating (0 to 100), Nutsedge, Yellow): 0%
pest or weed control at 125 g/ha (yellow nutsedge; Cyperus, post-emergence, 125 g ai/ha, postemergence, visual rating, scale 0 to 100 (0 no effect, 100 complete control), read-out: Plant response rating, Nutsedge, Yellow): 10%
pest or weed control at 62 g/ha (yellow nutsedge; Cyperus, post-emergence, Postemergence, 62 g ai/ha, scale 0 to 100 (0 no effect, 100 complete control), read-out: Plant response rating, Nutsedge, Yellow): 10%
pest or weed control at 16 g/ha (johnsongrass; Sorghum halepense, post-emergence, 16 g ai/ha, postemergence, 0 is no effect, 100 is complete control, read-out: Plant response rating (0 to 100), Johnsongrass): 5%
pest or weed control at 125 g/ha (johnsongrass; Sorghum halepense, post-emergence, 125 g ai/ha, postemergence, visual rating, scale 0 to 100 (0 no effect, 100 complete control), read-out: Plant response rating, Johnsongrass): 15%
pest or weed control at 62 g/ha (johnsongrass; Sorghum halepense, post-emergence, Postemergence, 62 g ai/ha, scale 0 to 100 (0 no effect, 100 complete control), read-out: Plant response rating, Johnsongrass): 5%
Plant response rating, Wheat (wheat; 500 g ai/ha, 0 to 100 scale where 0 is no effect and 100 is complete control): 70
plant injury at 125 g/ha (wheat; Triticum aestivum, post-emergence, 240 h, 125 g ai/ha, 0 to 100 scale where 0 is no effect and 100 is complete control, read-out: Wheat plant response rating): 0%
pest or weed control at 16 g/ha (kochia; Bassia scoparia, post-emergence, 16 g ai/ha, postemergence, 0 is no effect, 100 is complete control, read-out: Plant response rating (0 to 100), Kochia): 75%
pest or weed control at 125 g/ha (kochia; Bassia scoparia, post-emergence, 125 g ai/ha, postemergence, visual rating, scale 0 to 100 (0 no effect, 100 complete control), read-out: Plant response rating, Kochia): 95%
pest or weed control at 62 g/ha (kochia; Bassia scoparia, post-emergence, Postemergence, 62 g ai/ha, scale 0 to 100 (0 no effect, 100 complete control), read-out: Plant response rating, Kochia): 95%
pest or weed control at 16 g/ha (barnyardgrass [2]; Echinochloa crus-galli, post-emergence, 16 g ai/ha, postemergence, 0 is no effect, 100 is complete control, read-out: Plant response rating (0 to 100), Barnyardgrass): 0%
pest or weed control at 125 g/ha (barnyardgrass [2]; Echinochloa crus-galli, post-emergence, 125 g ai/ha, postemergence, visual rating, scale 0 to 100 (0 no effect, 100 complete control), read-out: Plant response rating, Barnyardgrass): 10%
pest or weed control at 31 g/ha (barnyardgrass [2]; Echinochloa crus-galli, post-emergence, Postemergence, 31 g ai/ha, scale 0 to 100 (0 no effect, 100 complete control), 13 to 15 days, read-out: Plant response rating, Barnyardgrass): 5%
pest or weed control at 62 g/ha (barnyardgrass [2]; Echinochloa crus-galli, post-emergence, Postemergence, 62 g ai/ha, scale 0 to 100 (0 no effect, 100 complete control), read-out: Plant response rating, Barnyardgrass): 5%

N#Cc1cnn(-c2c(Br)cccc2Oc2ncc(Cl)cn2)c1 [Compound 140]
Plant response rating, Sedge, Umbrella (sedge, umbrella): 80
Plant response rating (0 to 100), Oilseed Rape (oilseed rape; [3]): 5
Plant response rating, Oilseed Rape (oilseed rape; [4]): 50
Plant response rating, Oilseed Rape (oilseed rape; [5]): 50
Plant response rating (0 to 100), Blackgrass (blackgrass; [3]): 0
Plant response rating, Blackgrass (blackgrass; [4]): 5
Plant response rating, Blackgrass (blackgrass; [6]): 0
Plant response rating, Blackgrass (blackgrass; [5]): 0
Plant response rating, Barnyardgrass (barnyardgrass [1]; 31 g ai/ha, visual, approximately 10 days): 30
Plant response rating, Barnyardgrass (barnyardgrass [1]; 125 g ai/ha): 70
Plant response rating (0 to 100), Morningglory (morningglory; [3]): 0
Plant response rating, Morningglory (morningglory; [4]): 70
Plant response rating, Morningglory (morningglory; [5]): 75
Plant response rating (0 to 100), Crabgrass, Large (large (Lg) crabgrass; [3]): 10
Plant response rating, Crabgrass, Large (large (Lg) crabgrass; [4]): 20
Plant response rating, Crabgrass, Large (large (Lg) crabgrass; [5]): 15
Plant response rating (0 to 100), Nutsedge, Yellow (yellow nutsedge; [3]): 0
Plant response rating, Nutsedge, Yellow (yellow nutsedge; [4]): 5
Plant response rating, Nutsedge, Yellow (yellow nutsedge; [5]): 5
Plant response rating (0 to 100), Johnsongrass (johnsongrass; [3]): 0
Plant response rating, Johnsongrass (johnsongrass; [4]): 25
Plant response rating, Johnsongrass (johnsongrass; [5]): 5
Plant response rating, Wheat (wheat; 31 g ai/ha, 0 to 100 scale, 0 no effect, 100 complete control): 0
Wheat plant response rating (wheat; 125 g ai/ha, 0 to 100 scale where 0 is no effect and 100 is complete control): 0
Plant response rating (0 to 100), Kochia (kochia; [3]): 70
Plant response rating, Kochia (kochia; [4]): 90
Plant response rating, Kochia (kochia; [5]): 85
Plant response rating (0 to 100), Barnyardgrass (barnyardgrass [2]; [3]): 5
Plant response rating, Barnyardgrass (barnyardgrass [2]; [4]): 10
Plant response rating, Barnyardgrass (barnyardgrass [2]; [6]): 10
Plant response rating, Barnyardgrass (barnyardgrass [2]; [5]): 10

From patent publication US9695155B2, “Herbicidal substituted pyrimidinyloxy benzene compounds” (E. I. DU PONT DE NEMOURS AND COMPANY, priority 2013, dated 2017)
